In the NIST ThermoML archive (doi:10.1016/j.jct.2013.10.031):

Test: wn = mass fraction of the nth substance listed
Conditions: Gas, Burnett expansion method

FCC(F)(F)F [1,1,1,2-tetrafluoroethane] + CCC
Conditions | mass density [kg/m3]
304.25 K, 324.7 kPa, w2 = 0.45 | 8.75837
304.25 K, 423.5 kPa, w2 = 0.45 | 11.6666
304.25 K, 550.2 kPa, w2 = 0.45 | 15.5404
304.25 K, 710 kPa, w2 = 0.45 | 20.7007
306.96 K, 235.2 kPa, w2 = 0.65 | 5.2834
306.96 K, 309.8 kPa, w2 = 0.65 | 7.0255
306.96 K, 406.3 kPa, w2 = 0.65 | 9.3418
306.96 K, 530 kPa, w2 = 0.65 | 12.4219
306.96 K, 1095.4 kPa, w2 = 0.55 | 36.0371
306.97 K, 260.5 kPa, w2 = 0.55 | 6.5188
306.97 K, 673.4 kPa, w2 = 0.55 | 20.3802
306.97 K, 686.8 kPa, w2 = 0.65 | 16.5173
306.97 K, 865 kPa, w2 = 0.55 | 27.1004
306.97 K, 880.8 kPa, w2 = 0.65 | 21.9632
306.98 K, 343.1 kPa, w2 = 0.55 | 8.6681
306.98 K, 449.3 kPa, w2 = 0.55 | 11.5262
306.98 K, 519.6 kPa, w2 = 0.55 | 15.3262
307 K, 1113.5 kPa, w2 = 0.65 | 29.2029
307.04 K, 1304.3 kPa, w2 = 0.6 | 37.3883
307.05 K, 823.4 kPa, w2 = 0.6 | 21.1446
307.06 K, 286.9 kPa, w2 = 0.6 | 6.763
307.06 K, 376.9 kPa, w2 = 0.6 | 8.993
307.06 K, 492.8 kPa, w2 = 0.6 | 11.9584
307.06 K, 640 kPa, w2 = 0.6 | 15.901
307.06 K, 1046.1 kPa, w2 = 0.6 | 28.116
308.12 K, 266.9 kPa, w2 = 0.5 | 6.72365
308.12 K, 346.4 kPa, w2 = 0.5 | 8.95632
308.12 K, 447.5 kPa, w2 = 0.5 | 11.9301
308.12 K, 577.6 kPa, w2 = 0.5 | 15.8911
308.12 K, 742.5 kPa, w2 = 0.5 | 21.1679
308.13 K, 944.9 kPa, w2 = 0.5 | 28.196
308.14 K, 1188.3 kPa, w2 = 0.5 | 37.5563
308.15 K, 263.5 kPa, w2 = 0.45 | 6.89941
308.2 K, 1234.2 kPa, w2 = 0.45 | 38.5343
308.21 K, 980.9 kPa, w2 = 0.45 | 28.9282
308.22 K, 346.6 kPa, w2 = 0.45 | 9.18817
308.22 K, 454.6 kPa, w2 = 0.45 | 12.2393
308.22 K, 592.6 kPa, w2 = 0.45 | 16.3032
308.22 K, 766.7 kPa, w2 = 0.45 | 21.7165
308.23 K, 960.1 kPa, w2 = 0.4 | 29.795
308.24 K, 751.6 kPa, w2 = 0.4 | 22.3672
308.24 K, 1208.1 kPa, w2 = 0.4 | 39.6876
308.25 K, 447.1 kPa, w2 = 0.4 | 12.6056
308.25 K, 581.8 kPa, w2 = 0.4 | 16.7913
308.26 K, 197.5 kPa, w2 = 0.4 | 5.33332
308.26 K, 260.1 kPa, w2 = 0.4 | 7.10429
308.26 K, 341.6 kPa, w2 = 0.4 | 9.46322
311.01 K, 747.3 kPa, w2 = 0.65 | 17.8403
311.01 K, 956.7 kPa, w2 = 0.65 | 23.7227
311.01 K, 1206.7 kPa, w2 = 0.65 | 31.545
311.02 K, 256.8 kPa, w2 = 0.65 | 5.8063
311.02 K, 338 kPa, w2 = 0.65 | 7.5979
311.02 K, 383.5 kPa, w2 = 0.55 | 9.3582
311.02 K, 443.1 kPa, w2 = 0.65 | 10.0895
311.02 K, 500.4 kPa, w2 = 0.55 | 12.444
311.02 K, 577.7 kPa, w2 = 0.65 | 13.4164
311.02 K, 837.9 kPa, w2 = 0.55 | 22.003
311.02 K, 1067.2 kPa, w2 = 0.55 | 29.258
311.02 K, 1334.9 kPa, w2 = 0.55 | 38.9056
311.03 K, 650.6 kPa, w2 = 0.55 | 16.547
311.06 K, 1343.8 kPa, w2 = 0.6 | 37.8297
311.07 K, 294.6 kPa, w2 = 0.6 | 6.8432
311.07 K, 386.9 kPa, w2 = 0.6 | 9.1
311.07 K, 505.8 kPa, w2 = 0.6 | 12.1
311.07 K, 657.2 kPa, w2 = 0.6 | 16.0896
311.07 K, 846.4 kPa, w2 = 0.6 | 21.3948
311.07 K, 1076.1 kPa, w2 = 0.6 | 28.4489
312.09 K, 1147.3 kPa, w2 = 0.4 | 36.0778
312.09 K, 1427.9 kPa, w2 = 0.4 | 48.057
312.1 K, 240.2 kPa, w2 = 0.4 | 6.45834
312.1 K, 415.1 kPa, w2 = 0.4 | 11.4592
312.1 K, 542.2 kPa, w2 = 0.4 | 15.2643
312.1 K, 703.7 kPa, w2 = 0.4 | 20.3326
312.1 K, 904.5 kPa, w2 = 0.4 | 27.0838
312.11 K, 316.2 kPa, w2 = 0.4 | 8.60266
312.14 K, 1384.5 kPa, w2 = 0.45 | 44.9611
312.16 K, 1108.9 kPa, w2 = 0.45 | 33.7517
312.17 K, 679.1 kPa, w2 = 0.45 | 19.022
312.17 K, 873 kPa, w2 = 0.45 | 25.3381
312.18 K, 403.4 kPa, w2 = 0.45 | 10.7201
312.18 K, 524.7 kPa, w2 = 0.45 | 14.2797
312.19 K, 309.2 kPa, w2 = 0.45 | 8.04778
312.23 K, 1062.8 kPa, w2 = 0.5 | 30.8635
312.24 K, 293.9 kPa, w2 = 0.5 | 7.35936
312.24 K, 386.2 kPa, w2 = 0.5 | 9.80302
312.24 K, 650.6 kPa, w2 = 0.5 | 17.3937
312.24 K, 835.8 kPa, w2 = 0.5 | 23.1694
312.24 K, 1330.8 kPa, w2 = 0.5 | 41.1106
312.25 K, 502.5 kPa, w2 = 0.5 | 13.0579
315.01 K, 615.4 kPa, w2 = 0.65 | 14.1721
315.01 K, 795.5 kPa, w2 = 0.65 | 18.8451
315.01 K, 1017.2 kPa, w2 = 0.65 | 25.0585
315.01 K, 1280.7 kPa, w2 = 0.65 | 33.3212
315.02 K, 274.4 kPa, w2 = 0.65 | 6.0676
315.02 K, 360.8 kPa, w2 = 0.65 | 8.015
315.02 K, 472.6 kPa, w2 = 0.65 | 10.6578
315.06 K, 855 kPa, w2 = 0.55 | 22.0047
315.06 K, 1090.2 kPa, w2 = 0.55 | 29.2605
315.06 K, 1366.4 kPa, w2 = 0.55 | 38.9077
315.07 K, 509.9 kPa, w2 = 0.55 | 12.4444
315.07 K, 663.2 kPa, w2 = 0.55 | 16.5479
315.08 K, 389.6 kPa, w2 = 0.55 | 9.3584
315.09 K, 296.5 kPa, w2 = 0.55 | 7.0377
315.09 K, 1068.9 kPa, w2 = 0.6 | 27.4868
315.1 K, 289.6 kPa, w2 = 0.6 | 6.6116
315.1 K, 498.6 kPa, w2 = 0.6 | 11.6903
315.1 K, 648.9 kPa, w2 = 0.6 | 15.5452
315.1 K, 837.4 kPa, w2 = 0.6 | 20.6708
315.1 K, 1341.8 kPa, w2 = 0.6 | 36.5492
315.11 K, 380.8 kPa, w2 = 0.6 | 8.7915
315.98 K, 1580.4 kPa, w2 = 0.5 | 50.2225
316.02 K, 947.3 kPa, w2 = 0.4 | 28.0242
316.02 K, 1201.7 kPa, w2 = 0.4 | 37.3297
316.03 K, 251.6 kPa, w2 = 0.4 | 6.68246
316.03 K, 331.4 kPa, w2 = 0.4 | 8.9013
316.03 K, 434.8 kPa, w2 = 0.4 | 11.857
316.03 K, 568 kPa, w2 = 0.4 | 15.7941
316.03 K, 737 kPa, w2 = 0.4 | 21.0384
316.03 K, 1496.5 kPa, w2 = 0.4 | 49.7241
316.07 K, 1279.9 kPa, w2 = 0.5 | 37.6931
316.09 K, 1628 kPa, w2 = 0.45 | 55.7253
316.11 K, 1015.3 kPa, w2 = 0.5 | 28.294
316.11 K, 1322.4 kPa, w2 = 0.45 | 41.8324
316.12 K, 496.6 kPa, w2 = 0.45 | 13.2868
316.12 K, 641.4 kPa, w2 = 0.45 | 17.6986
316.12 K, 825.1 kPa, w2 = 0.45 | 23.5754
316.12 K, 1051.5 kPa, w2 = 0.45 | 31.4039
316.13 K, 382.7 kPa, w2 = 0.45 | 9.97465
316.13 K, 614 kPa, w2 = 0.5 | 15.945
316.13 K, 793.6 kPa, w2 = 0.5 | 21.2396
316.14 K, 359.6 kPa, w2 = 0.5 | 8.98623
316.14 K, 471.1 kPa, w2 = 0.5 | 11.9702
319.94 K, 1816.9 kPa, w2 = 0.4 | 64.6378
319.97 K, 1488.2 kPa, w2 = 0.4 | 48.5219
319.98 K, 935.7 kPa, w2 = 0.4 | 27.3455
319.98 K, 1189.8 kPa, w2 = 0.4 | 36.4256
319.99 K, 326.1 kPa, w2 = 0.4 | 8.68561
319.99 K, 428.1 kPa, w2 = 0.4 | 11.5696
319.99 K, 559.5 kPa, w2 = 0.4 | 15.4113
319.99 K, 726.9 kPa, w2 = 0.4 | 20.5286
320 K, 1619.8 kPa, w2 = 0.5 | 49.4434
320.03 K, 1304.5 kPa, w2 = 0.5 | 37.1152
320.05 K, 1030.2 kPa, w2 = 0.5 | 27.8617
320.07 K, 802.1 kPa, w2 = 0.5 | 20.9155
320.08 K, 360.7 kPa, w2 = 0.5 | 8.84905
320.08 K, 473.5 kPa, w2 = 0.5 | 11.7874
320.08 K, 618.5 kPa, w2 = 0.5 | 15.7015
320.08 K, 1320 kPa, w2 = 0.45 | 39.4284
320.08 K, 1636.4 kPa, w2 = 0.45 | 52.5203
320.09 K, 814.3 kPa, w2 = 0.45 | 22.2206
320.09 K, 1044.1 kPa, w2 = 0.45 | 29.5994
320.1 K, 367.3 kPa, w2 = 0.45 | 9.40149
320.1 K, 481.7 kPa, w2 = 0.45 | 12.5232
320.1 K, 628.6 kPa, w2 = 0.45 | 16.6813
